Measured values taken from PubChem BioAssay AID179 (DTP/NCI, 2004).
Active and inactive are the calls of the source.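 How the source made its calls: active means compounds giving half or more protection of infected cells from virus-caused growth loss, again on retest; inactive means the rest.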

Tested on: CEM cells HIV-1 protection, formazan growth assay
Experiment: NCI AIDS Antiviral Assay
Settings: for IC50: measured here: growth of uninfected CEM cells
How it was run: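 Steps: treat uninfected and HIV-1-infected human CEM cells at five drug levels; quantify growth by soluble formazan; retest any compound reaching 50% protection; classify actives from the retest.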

SMILES	EC50 [µM]	IC50 [µM]	outcome
CCCCCCCCCCCc1c2[nH]c3cc(C)ccc3oc2cc2[nH]c3cc(C)ccc3oc12	> 2	> 2	
CCSCCCSCCSCC	> 158	> 158	
COc1c2c(c(Cl)c3ccc(=O)oc13)CCO2	> 70.8	> 70.8	
C=CCOC1(CC=C)C(=O)OC2C(O)COC21O (configuration not stated)	> 200	> 200	
N#Cc1ccc(N=NN2CCCC2)cc1	> 200	17.8	
CC(=O)/C(=C/c1ccc(N(C)C)cc1)C(=O)c1ccccc1	> 6.76	> 6.76	
O=C1CCSSCCC(=O)NCCN1	> 22.4	> 22.4	
c1cc(-c2cn[nH]c2)cc(-c2cn[nH]c2)c1			inactive
CCOC(=O)c1cc2sc(NC(=O)c3cccs3)nc2o1			inactive
CON(C)C(=O)[C@H]1C[C@@]1(C)CO	> 200	> 200	
CCOC(=O)/C(C#N)=C/c1ccc(F)cc1	> 162	> 162	
O=C1Cc2c([nH]c3ccccc23)-c2cc(Br)ccc2N1	> 41.7	> 41.7	
CC(C)NC(=O)OCc1c(COC(=O)NC(C)C)c(-c2ccc(Cl)c(Cl)c2)n2c1CS(=O)(=O)C2	> 200	42.7	
O=c1sc(Nc2ccc3ccccc3c2Cl)nc2ccccc12	> 200	> 200	
CC(C)C(=O)/C=C/c1ccc(Cl)cc1			inactive
O=C(N=Nc1ccccc1Cl)NNc1ccccc1Cl	> 200	31.6	
O=[N+]([O-])c1cc(NN=C(c2ccccc2)c2ccccc2)cc([N+](=O)[O-])c1	> 3.98	> 3.98	
O=C(O)/C(Cl)=C(\Cl)C(=O)c1ccccc1	> 1020	> 1020	
CCN(CC)c1ccc2cc(S(=O)(=O)c3ccccc3)c(=O)oc2c1			inactive
NC(=O)C(=CNC(=S)Nc1ccc(S(=O)(=O)Nc2ccccn2)cc1)C(N)=O	> 200	> 200	
CNC(=O)N(C1CCCCC1)C1CCCCC1	> 200	110	
S=C(SSSSC(=S)N(C1CCCCC1)C1CCCCC1)N(C1CCCCC1)C1CCCCC1	> 200	126	
Nc1cc(-c2ccc(Cl)cc2)nn1-c1nnc2c(n1)[nH]c1ccccc12	> 200	> 200	

SMILES	EC50 [µM]	IC50 [µM]	outcome
CCC12CCCN(Cc3ccccc3)C1c1c([nH]c3ccccc13)C(C(=O)OC)C2 (configuration not stated)	> 30.9	> 30.9	
NC(CC(=O)OCc1ccccc1)C(=O)OCc1ccccc1 (configuration not stated)	> 200	> 200	
C=CC(=O)N1C/C(=C\c2ccc(Cl)cc2)C(=O)/C(=C/c2ccc(Cl)cc2)C1	> 0.2	0.0708	
CCOC(=O)C1=CCOc2cc(N(C)C)ccc21	> 200	105	
COc1ccc2c(c1)C1C(CO2)C(c2ccccc2)=NN1c1ccccc1 (configuration not stated)	> 20.4	> 20.4	
CCC[CH2][Ge]([CH2]CCC)([CH2]CCC)[O]C(=O)CCl	> 32.4	> 32.4	
O=C(O)CCC1(CCC(=O)O)CCCCCCCCC(CCC(=O)O)(CCC(=O)O)C(=O)C1=O	> 200	> 200	
C#CCNC(CCCN=C(N)N)C(=O)O (configuration not stated)	> 200	> 200	
O=C(CC1C(=O)Nc2ccccc2S1(=O)=O)Nc1cccc(Cl)c1 (configuration not stated)	> 27.5	> 27.5	
CC(C)CCCC(C)[C@H]1CC[C@H]2[C@@H]3CC[C@H]4C[C@@H](CCC=C(c5cc(Cl)c(O)c(C(=O)O)c5)c5cc(Cl)c(O)c(C(=O)O)c5)CC[C@]4(C)[C@H]3CC[C@]12C (some centres not stated)	60.3	129	
CN1C/C(=C\c2cccs2)C2=NN(C)C(c3cccs3)C2C1 (configuration not stated)	> 200	> 200	
O=C(c1ccc(Cl)cc1)C1OC12C(=O)Nc1c(Cl)cc(Cl)cc12 (configuration not stated)	> 19.5	> 19.5	
COc1ccccc1N1C(=O)/C(=C\c2cccc(Oc3ccccc3)c2)SC1c1ccccc1 (configuration not stated)	> 200	52.5	
COC(=O)c1c2c(cc3c1CC1(C3)Cc3cc4c(c(C(C)=O)c3C1)CCC4)C=CC2 (configuration not stated)	> 200	> 200	
Cc1noc2c1NC(=O)OCC2	11	490	
CC(=O)Oc1ccc2cc(Oc3ccc(Cl)c(Cl)c3)c(=O)oc2c1	> 200	85.1	
Cc1csc(N2C(=O)c3cccc4cccc(c34)C2=O)n1	> 200	64.6	
C=C1C(=O)O[C@H]2CC(C)C3C(O)CC(O)[C@@]3(C)C[C@H]12 (some centres not stated)	> 933	6.03	
COc1ccc(NC/C=C/C(=C/COC(C)=O)OC(C)=O)cc1	> 200	3.16	
O=P(O)(O)Cc1c(Cl)c(Cl)c(CP(=O)(O)O)c(Cl)c1Cl	> 200	> 200	
C1CCC2C(C1)CCCC2NC1=NCCO1 (configuration not stated)	> 200	115	
O=C(N/N=C/c1ccco1)c1ccc(OCc2nc3ccccc3[nH]2)cc1	> 200	83.2	
O=C1NC2CCCCCC2C12CCCCC2 (configuration not stated)			inactive
